Assay results from publication PMC10368877, “Acid-sensing ion channel blocker diminazene facilitates proton-induced excitation of afferent nerves in a similar manner that Na^+/H^+ exchanger blockers do” (Frontiers in Cellular Neuroscience, 2023).

Test system: T1, acid-sensing ion channels (native ASICs of mouse DRG neurons; subunit not identified)
T1 construct: native channels in primary cultured mouse DRG neurons
Assay: whole-cell patch clamp, ASIC currents evoked by pH drop […] to […] at -60 mV
Assay type: cell-based

IC50: 16.9 ± 4.4 µM
SMILES: N=C(N)c1ccc(/N=N/Nc2ccc(C(=N)N)cc2)cc1 [diminazene]
